In patent US12428408B2, “Fused heterocyclic mescaline derivatives” (Enveric Biosciences Canada Inc., priority 2022, dated 2025):
Where two headings read alike, the source gives them in different places.

How the values were obtained:
MT1 (ML1A) (h) = biological target: T1, MT1 (ML1A) (h) (Homo sapiens, UniProt P48039); test: Competition assay to measure binding affinity at MT1 receptor; settings: test ligand 10 μM; [125I]2-iodomelatonin 0.01 nM
T1 construct: host or cells: CHO cells

5-HT2C (h) = biological target: T2, 5-HT2C (h) (Homo sapiens, UniProt P28335); test: Competition assay to measure binding affinity at 5-HT2C receptor; settings: test ligand 10 μM; [125I](±)DOI 0.1 nM
T2 construct: host or cells: HEK-293 cells
T2 sequence (P28335 33-458): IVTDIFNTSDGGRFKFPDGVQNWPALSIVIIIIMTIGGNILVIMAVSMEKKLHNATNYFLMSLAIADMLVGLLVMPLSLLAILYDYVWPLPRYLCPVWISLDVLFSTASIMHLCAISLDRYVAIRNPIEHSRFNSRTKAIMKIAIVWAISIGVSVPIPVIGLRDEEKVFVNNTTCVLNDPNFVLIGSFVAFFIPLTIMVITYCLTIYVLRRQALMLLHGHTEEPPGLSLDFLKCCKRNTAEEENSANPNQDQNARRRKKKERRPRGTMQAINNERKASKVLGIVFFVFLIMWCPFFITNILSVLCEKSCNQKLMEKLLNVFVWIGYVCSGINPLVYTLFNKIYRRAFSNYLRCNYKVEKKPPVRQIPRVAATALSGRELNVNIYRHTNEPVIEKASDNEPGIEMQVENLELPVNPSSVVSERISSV

[1] = biological target: T3, human serotonin transporter (SERT) (Homo sapiens, UniProt P31645); test: biochemical; type: binding
T3 construct: purchased PerkinElmer RBHSTM400UA
T3 sequence (P31645 whole entry): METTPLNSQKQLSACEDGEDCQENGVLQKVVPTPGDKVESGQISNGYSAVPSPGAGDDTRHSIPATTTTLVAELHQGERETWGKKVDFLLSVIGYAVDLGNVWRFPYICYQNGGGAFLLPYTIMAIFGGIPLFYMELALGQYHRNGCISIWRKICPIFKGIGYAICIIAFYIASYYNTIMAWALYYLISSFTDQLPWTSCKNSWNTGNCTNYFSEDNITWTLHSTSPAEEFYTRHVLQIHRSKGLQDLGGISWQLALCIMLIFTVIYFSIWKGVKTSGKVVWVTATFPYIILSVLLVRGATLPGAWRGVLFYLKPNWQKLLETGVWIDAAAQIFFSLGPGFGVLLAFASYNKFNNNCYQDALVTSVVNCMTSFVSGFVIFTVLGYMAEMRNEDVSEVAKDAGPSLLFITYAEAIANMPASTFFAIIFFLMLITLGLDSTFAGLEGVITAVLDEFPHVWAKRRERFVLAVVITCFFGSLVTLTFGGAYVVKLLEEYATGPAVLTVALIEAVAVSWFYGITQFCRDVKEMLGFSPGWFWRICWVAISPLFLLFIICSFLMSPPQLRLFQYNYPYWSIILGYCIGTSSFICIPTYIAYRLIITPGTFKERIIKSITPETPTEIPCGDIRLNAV

D2 (h) = biological target: T4, D2 (h) (Homo sapiens, UniProt P14416); test: Competition assay to measure binding affinity at D2L receptor; settings: test ligand 10 μM; [3H]methylspiperone 0.3 nM
T4 construct: host or cells: HEK-293 cells
T4 sequence (P14416 whole entry): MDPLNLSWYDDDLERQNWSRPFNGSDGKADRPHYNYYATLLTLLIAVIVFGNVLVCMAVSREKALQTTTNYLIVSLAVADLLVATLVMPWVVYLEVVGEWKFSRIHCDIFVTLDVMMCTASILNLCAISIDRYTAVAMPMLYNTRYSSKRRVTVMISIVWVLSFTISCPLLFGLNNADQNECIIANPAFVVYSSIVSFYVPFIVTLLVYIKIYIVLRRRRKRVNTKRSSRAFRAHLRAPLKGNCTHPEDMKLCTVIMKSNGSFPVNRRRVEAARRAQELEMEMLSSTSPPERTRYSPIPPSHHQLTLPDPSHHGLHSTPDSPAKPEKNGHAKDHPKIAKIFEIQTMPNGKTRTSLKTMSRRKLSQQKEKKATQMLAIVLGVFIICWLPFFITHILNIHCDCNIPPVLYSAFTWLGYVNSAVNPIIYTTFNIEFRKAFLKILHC

DAT (h) = biological target: T5, DAT (h) (Homo sapiens, UniProt Q01959); test: Competition assay to measure binding affinity at dopamine transporter (DAT); settings: test ligand 10 μM; [3H]BTCP 4 nM
T5 construct: host or cells: CHO cells

5-HT1B (h) = biological target: T6, 5-HT1B (h) (Homo sapiens, UniProt P28222); test: Competition assay to measure binding affinity at 5-HT1B receptor; settings: test ligand 10 μM; [3H]GR125743 1 nM
T6 construct: host or cells: Chem-1 (RBL) cells
T6 sequence (P28222 whole entry): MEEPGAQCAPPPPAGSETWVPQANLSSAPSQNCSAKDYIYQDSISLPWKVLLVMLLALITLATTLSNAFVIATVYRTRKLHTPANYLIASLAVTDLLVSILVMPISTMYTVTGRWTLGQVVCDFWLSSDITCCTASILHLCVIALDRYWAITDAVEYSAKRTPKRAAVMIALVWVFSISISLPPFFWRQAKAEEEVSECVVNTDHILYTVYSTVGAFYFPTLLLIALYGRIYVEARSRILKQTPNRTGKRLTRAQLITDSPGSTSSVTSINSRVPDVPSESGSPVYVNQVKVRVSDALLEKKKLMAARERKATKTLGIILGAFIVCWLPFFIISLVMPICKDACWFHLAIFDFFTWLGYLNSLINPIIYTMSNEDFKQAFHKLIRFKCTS

NET (h) = biological target: T7, NET (h) (Homo sapiens, UniProt P23975); test: Competition assay to measure binding affinity at norepinephrine transporter (NET); settings: test ligand 10 μM; [3H]nisoxetine 1 nM
T7 construct: host or cells: CHO cells
T7 sequence (P23975 whole entry): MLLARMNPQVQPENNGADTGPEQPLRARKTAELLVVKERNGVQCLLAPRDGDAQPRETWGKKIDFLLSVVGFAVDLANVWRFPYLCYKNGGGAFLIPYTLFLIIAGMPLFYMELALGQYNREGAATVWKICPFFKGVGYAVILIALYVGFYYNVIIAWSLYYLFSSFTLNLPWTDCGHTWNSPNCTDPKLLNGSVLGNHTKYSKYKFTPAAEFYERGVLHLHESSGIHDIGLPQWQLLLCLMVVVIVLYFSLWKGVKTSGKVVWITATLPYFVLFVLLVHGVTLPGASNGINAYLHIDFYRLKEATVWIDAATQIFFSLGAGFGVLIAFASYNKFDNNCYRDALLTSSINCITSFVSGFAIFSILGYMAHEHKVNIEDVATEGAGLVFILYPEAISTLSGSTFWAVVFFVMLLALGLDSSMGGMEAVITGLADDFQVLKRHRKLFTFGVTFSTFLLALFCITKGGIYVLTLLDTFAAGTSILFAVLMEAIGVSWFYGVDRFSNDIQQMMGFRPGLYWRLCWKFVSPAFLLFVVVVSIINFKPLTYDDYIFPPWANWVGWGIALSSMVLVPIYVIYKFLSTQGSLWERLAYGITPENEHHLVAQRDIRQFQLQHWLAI

5-HT2A receptor = 5-HT2A receptor (Homo sapiens, UniProt P28223); test: 5-HT2A receptor radioligand competition assay (SPA)
Sequence of 5-HT2A receptor (P28223 whole entry): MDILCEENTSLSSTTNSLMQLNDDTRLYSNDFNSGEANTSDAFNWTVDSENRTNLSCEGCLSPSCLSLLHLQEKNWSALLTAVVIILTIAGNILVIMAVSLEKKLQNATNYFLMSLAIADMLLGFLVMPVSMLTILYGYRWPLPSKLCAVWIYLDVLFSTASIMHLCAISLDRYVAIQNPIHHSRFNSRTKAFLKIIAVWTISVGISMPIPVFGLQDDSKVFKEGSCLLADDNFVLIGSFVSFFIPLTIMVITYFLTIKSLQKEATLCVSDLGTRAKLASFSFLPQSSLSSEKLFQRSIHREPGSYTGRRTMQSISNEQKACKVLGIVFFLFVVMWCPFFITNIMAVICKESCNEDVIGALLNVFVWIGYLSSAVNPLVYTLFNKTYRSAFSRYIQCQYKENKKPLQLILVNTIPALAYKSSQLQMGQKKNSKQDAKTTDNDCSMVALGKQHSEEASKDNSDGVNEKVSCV

5-HT1A receptor = biological target: T8, 5-HT1A receptor (Homo sapiens, UniProt P08908); test: 5-HT1A receptor radioligand competition assay (SPA); type: binding; settings: for 5-HT1A receptor binding, binding curve in words: FIGS. 35C-35L
T8 construct: purchased Perkin Elmer 6110501400UA
T8 sequence (P08908 1-422): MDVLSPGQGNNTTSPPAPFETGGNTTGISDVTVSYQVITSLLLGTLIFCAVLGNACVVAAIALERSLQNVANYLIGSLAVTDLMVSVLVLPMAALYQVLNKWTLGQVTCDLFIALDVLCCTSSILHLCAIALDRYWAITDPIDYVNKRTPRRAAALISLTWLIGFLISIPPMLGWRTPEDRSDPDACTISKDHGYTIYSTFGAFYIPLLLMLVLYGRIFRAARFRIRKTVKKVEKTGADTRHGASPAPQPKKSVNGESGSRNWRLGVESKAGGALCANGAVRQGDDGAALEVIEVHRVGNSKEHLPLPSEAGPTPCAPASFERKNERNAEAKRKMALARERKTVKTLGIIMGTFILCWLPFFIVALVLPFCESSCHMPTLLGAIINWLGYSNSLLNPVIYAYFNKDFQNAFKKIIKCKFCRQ

5-HT1D (r) = biological target: T9, 5-HT1D (r) (Rattus norvegicus, UniProt P28565); test: Competition assay to measure binding affinity at 5-HT1D receptor; settings: test ligand 10 μM; [3H]serotonin 1 nM
T9 construct: host or cells: CHO cells
T9 sequence (P28565 whole entry): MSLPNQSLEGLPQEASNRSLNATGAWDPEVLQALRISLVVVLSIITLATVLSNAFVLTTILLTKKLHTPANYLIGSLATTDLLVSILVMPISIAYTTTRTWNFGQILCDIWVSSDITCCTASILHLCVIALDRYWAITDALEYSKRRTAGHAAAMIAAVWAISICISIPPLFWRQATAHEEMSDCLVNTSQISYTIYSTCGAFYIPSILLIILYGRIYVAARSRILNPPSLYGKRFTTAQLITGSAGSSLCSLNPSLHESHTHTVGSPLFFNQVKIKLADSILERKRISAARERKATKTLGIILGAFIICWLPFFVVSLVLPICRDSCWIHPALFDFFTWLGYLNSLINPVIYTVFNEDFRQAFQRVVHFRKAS

[2] = tested on: C57BL/6-Elite male and female mice; test: Head Twitch Response (HTR) assay; type: in vivo, mouse; settings: i.p. 6 mg/kg, 15-to-30-minute window following drug administration
5-HT7 (h) = biological target: T10, 5-HT7 (h) (Homo sapiens, UniProt P34969); test: Competition assay to measure binding affinity at 5-HT7 receptor; settings: test ligand 10 μM; [3H]LSD 4 nM
T10 construct: host or cells: HEK-293 cells
T10 sequence (P34969 whole entry): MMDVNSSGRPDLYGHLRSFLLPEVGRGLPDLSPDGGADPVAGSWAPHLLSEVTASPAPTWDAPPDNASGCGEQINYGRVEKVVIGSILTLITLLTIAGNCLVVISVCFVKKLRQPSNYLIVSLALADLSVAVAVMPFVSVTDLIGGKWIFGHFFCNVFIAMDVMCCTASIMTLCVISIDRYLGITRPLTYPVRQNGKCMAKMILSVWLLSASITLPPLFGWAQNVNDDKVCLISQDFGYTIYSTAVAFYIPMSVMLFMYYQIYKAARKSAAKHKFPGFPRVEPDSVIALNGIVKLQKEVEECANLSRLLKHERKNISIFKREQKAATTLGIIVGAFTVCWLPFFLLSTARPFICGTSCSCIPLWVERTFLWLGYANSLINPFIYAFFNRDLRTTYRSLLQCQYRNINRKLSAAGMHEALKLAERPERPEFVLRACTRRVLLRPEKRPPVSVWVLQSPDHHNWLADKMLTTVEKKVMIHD

alpha2A (h) = biological target: T11, alpha2A (h) (Homo sapiens, UniProt P08913); test: Competition assay to measure binding affinity at alpha2A receptor; settings: test ligand 10 μM, [3H]RX 821002 1 nM; for inhibition at 10 µM: read-out: α-2A, percent of control-specific binding
T11 construct: host or cells: CHO cells
T11 sequence (P08913 1-465): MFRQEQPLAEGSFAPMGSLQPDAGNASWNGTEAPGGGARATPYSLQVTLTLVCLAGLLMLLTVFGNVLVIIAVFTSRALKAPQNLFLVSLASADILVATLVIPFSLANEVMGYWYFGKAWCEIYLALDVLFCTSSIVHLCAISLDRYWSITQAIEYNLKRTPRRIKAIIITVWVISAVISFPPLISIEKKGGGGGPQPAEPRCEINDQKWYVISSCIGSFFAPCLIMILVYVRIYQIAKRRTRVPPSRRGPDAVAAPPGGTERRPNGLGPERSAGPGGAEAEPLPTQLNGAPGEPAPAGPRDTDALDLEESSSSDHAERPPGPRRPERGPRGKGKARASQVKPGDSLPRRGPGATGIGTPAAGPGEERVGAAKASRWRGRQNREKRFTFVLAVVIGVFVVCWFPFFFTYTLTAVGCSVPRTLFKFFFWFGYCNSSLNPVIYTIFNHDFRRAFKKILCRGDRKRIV

5-HT2B (h) = biological target: T12, 5-HT2B (h) (Homo sapiens, UniProt P41595); test: Competition assay to measure binding affinity at 5-HT2B receptor; settings: test ligand 10 μM; [3H]mesulergine 2 nM
T12 construct: host or cells: CHO cells
T12 sequence (P41595 whole entry): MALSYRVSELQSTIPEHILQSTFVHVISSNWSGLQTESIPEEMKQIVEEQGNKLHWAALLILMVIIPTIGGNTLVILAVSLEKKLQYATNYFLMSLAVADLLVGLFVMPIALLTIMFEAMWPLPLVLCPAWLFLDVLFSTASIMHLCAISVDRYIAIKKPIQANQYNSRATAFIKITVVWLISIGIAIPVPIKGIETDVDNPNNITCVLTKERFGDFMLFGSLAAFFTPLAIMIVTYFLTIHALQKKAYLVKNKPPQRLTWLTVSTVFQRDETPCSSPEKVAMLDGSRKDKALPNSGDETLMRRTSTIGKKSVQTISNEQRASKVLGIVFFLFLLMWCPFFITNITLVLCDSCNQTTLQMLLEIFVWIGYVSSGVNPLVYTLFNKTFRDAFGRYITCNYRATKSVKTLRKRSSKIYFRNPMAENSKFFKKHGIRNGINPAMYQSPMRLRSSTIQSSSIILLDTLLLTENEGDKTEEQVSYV

[3] = tested on: C57BL/6-Elite male and female mice; test: Ear-Scratch Response (ESR) assay; type: in vivo, mouse; settings: i.p. 6 mg/kg, 15-to-30-minute window following drug administration
D3 (h) = biological target: T13, D3 (h) (Homo sapiens, UniProt P35462); test: Competition assay to measure binding affinity at D3 receptor; settings: test ligand 10 μM; [3H]methylspiperone […]
T13 construct: host or cells: CHO cells
T13 sequence (P35462 whole entry): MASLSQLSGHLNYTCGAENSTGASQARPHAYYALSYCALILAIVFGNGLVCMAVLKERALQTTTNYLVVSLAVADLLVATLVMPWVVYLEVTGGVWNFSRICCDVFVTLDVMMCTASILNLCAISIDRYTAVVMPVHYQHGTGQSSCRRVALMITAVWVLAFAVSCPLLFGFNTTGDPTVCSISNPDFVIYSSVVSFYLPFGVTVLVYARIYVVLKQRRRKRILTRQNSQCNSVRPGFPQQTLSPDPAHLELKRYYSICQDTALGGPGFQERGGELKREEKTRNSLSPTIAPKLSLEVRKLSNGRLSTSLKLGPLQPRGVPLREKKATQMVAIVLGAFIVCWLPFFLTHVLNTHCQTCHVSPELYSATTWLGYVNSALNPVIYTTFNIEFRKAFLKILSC

[4] = tested on: Human NT2/D1 precursor cells (NT2/D1); test: Neuroplastogenicity assay using human model (NT2) neurons; type: cell-based; settings: RA-treated NT2 cells, 1 μM, 48 hours, vs 0.1% DMSO
Procedure: The compound with formula A(XXXII) was assayed for neuroplastogenic potential using the following procedure. Human NT2/D1 precursor cells (NT2/D1) were purchased from the American Type Culture Collection (ATCC, Manassas, VA, USA). The neuronal differentiation was carried out as previously described (Roloff et al., 2015, PLOS ONE e0118536:1-14; Roloff et al., 2013, BMC Neuroscience 14:141-155) with minor modifications. First, NT2/D1 cells were seeded in T-25 suspension culture flasks (REF #690190, Greiner bio-one, Germany). Each flask contained a minimum of 5×10^6 cells in 10 ml of DMEM/F12 supplemented with 10% fetal bovine serum (FBS), 1% penicillin and streptomycin and 10 μM retinoic acid (RA medium) to start neuronal differentiation. The cells were cultured for 3 days in free floating medium. At the end of the incubation, cells were trypsinized and collected by centrifugation, mechanically dispersed, and counted. Counted cells were seeded on Poly D-Lysine (PDL) coated cover slips (12 mm; diameter round, Fisher Scientific; GG-12-PDL) containing minimum of 0.1×10^5 cells in culture medium without RA. The next day, culture medium was replaced with RA medium containing 2% of FBS. These cells were cultured for 5 days, with a change of RA medium two days later. For the neuronal outgrowth assay, after cells had successfully attached and established under coverslips, the RA medium was replaced with one of the following: (1) test molecules at one of two different concentrations (10 μm or 1 μm); (2) positive control ROCK inhibitor Y-27632, (Dihydrochloride, Sigma-Aldrich); (2) positive control ibuprofen (14883-1G; Sigma-Aldrich), or (4) negative control culture medium containing 2% of FBS. Cells under these conditions were incubated for 48 hours under standard conditions (37° C., 5% CO2) in an incubator prior to the immunofluorescent assay.
For the immunofluorescent assay, the treated cells housed under coverslips were collected after 48 hours of drug treatments. These coverslips washed with calcium chloride-free and magnesium chloride-free phosphate buffered saline (PBS) pH 7.4 (Gibco, #70011-044) and fixed using paraformaldehyde (PFA) 4% in PBS (#J61899, thermoscientific) for 15 min at room temperature (RT) and washed three times with 0.01% of Triton-X100 in PBS (PBST) to remove remaining PFA and to permeabilize the cells. Unspecific binding sites were blocked with 5% Bovine Serum Albumin (BSA) solution (#9048-46-8, Millipore) in PBST for 60 minutes at RT. Rabbit monoclonal antibody β-III-Tubulin (1:5,000, ab52623, Abcam) was applied overnight (O/N) at 4° C. […] Finally, the immunofluorescence images were detected by using Olympus VS110 slide scanner microscope. […]

[5] = competition with 0.5 nM 8-hydroxy-DPAT [3H], test compound 3 nM to 1 mM, read-out: 5-HT1A, Ki

T1 sequence (P48039 whole entry): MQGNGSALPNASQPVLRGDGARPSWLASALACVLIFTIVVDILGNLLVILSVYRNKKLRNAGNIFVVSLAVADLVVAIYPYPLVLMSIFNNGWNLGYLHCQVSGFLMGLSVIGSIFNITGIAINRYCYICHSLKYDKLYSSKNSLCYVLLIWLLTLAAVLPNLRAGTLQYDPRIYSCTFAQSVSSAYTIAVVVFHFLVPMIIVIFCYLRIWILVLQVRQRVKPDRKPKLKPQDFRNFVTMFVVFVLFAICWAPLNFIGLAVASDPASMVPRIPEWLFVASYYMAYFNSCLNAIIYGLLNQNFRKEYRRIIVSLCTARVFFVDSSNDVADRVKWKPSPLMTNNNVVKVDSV

Structure (SMILES) | MT1, percent of control-specific binding (MT1 (ML1A) (h)) | HT2C, percent of control-specific binding (5-HT2C (h)) | Ki [1] | D2, percent of control-specific binding (D2 (h)) | DAT, percent of control-specific binding (DAT (h)) | HT1B, percent of control-specific binding (5-HT1B (h)) | NET, percent of control-specific binding (NET (h)) | Ki (5-HT2A receptor) | HT1D, percent of control-specific binding (5-HT1D (r)) | incidences of HTR relative to vehicle-treated control mice [2] | HT7, percent of control-specific binding (5-HT7 (h)) | inhibition at 10 µM (alpha2A (h)) | HT2B, percent of control-specific binding (5-HT2B (h)) | incidences of ESR relative to vehicle-treated control mice [3] | D3, percent of control-specific binding (D3 (h)) | Ki (5-HT1A receptor; [5]) | neurite outgrowth (β-III-tubulin immunofluorescence) compared to negative control [4] | SERT binding, binding curve in words [1] | 5-HT1A receptor binding, binding curve in words (5-HT1A receptor) | further results
CC(Cc1ccc2c(c1)OCO2)NC1CCC1 (stereo not shown) [A(I)] | 2% | 28% | 1.1 µM | 15% | 98% | 0% | 62% | 517 µM | 0% | Elevated incidences of HTR | 5% | 35% | 37% | Elevated incidences of ESR | 24% |  |  |  |  | Ki (5-HT1A receptor): 20.8 µM
c1cc2c(cc1CCN1CCOCC1)OCO2 [A(VII)] | 0% | 4% | 29.9 µM | 3% | 18% | 0% | 0% | 6 µM | 0% | Elevated incidences of HTR | 14% | 5% | 12% | Elevated incidences of ESR | 4% | 24.1 µM |  |  |  | 
CC(Cc1ccc2c(c1)OCO2)NCCc1c[nH]c2ccccc12 (stereo not shown) [A(XXXI)] |  |  |  |  |  |  |  |  |  |  |  |  |  |  |  |  | strong signs of neurite outgrowth |  |  | 
C[C@@H](N)[C@H]1CC[C@H](C(=O)Nc2ccncc2)CC1 [Y-27632, reference compound] |  |  |  |  |  |  |  |  |  |  |  |  |  |  |  |  | strong signs of neurite outgrowth |  |  | 
CCOc1c(OC)cc(CCN)cc1OC [escaline] | 0% | 95% |  | 5% | 0% | 0% | 6% |  | 42% | Elevated incidences of HTR | 16% |  | 81% | Elevated incidences of ESR | 0% | 12.4 µM |  | bind SERT to varying degrees | binding to 5-HT1A receptor | Ki ([1]; read-out: SERT, Ki): 113 µM; Ki (5-HT2A receptor; read-out: 5-HT2A, Ki, competition with 1 nM [3H]ketanserin, test compound 3 nM to 1 mM): 61 µM; α-2A, percent of control-specific binding (alpha2A (h)): 45%
CCCOc1c(OC)cc(CCN)cc1OC [proscaline, reference compound] | 3% | 97% | 251 µM | −11% | −2% | −13% | −9% |  | 25% | Elevated incidences of HTR |  | 40% | 85% | Elevated incidences of ESR | 4% |  |  | bind SERT to varying degrees | binding to 5-HT1A receptor | 
